Experimental data published in patent publication US7514438B2, “Melanin concentrating hormone receptor antagonist” (Amgen, Inc., priority 2003, dated 2009).
Read-outs that look alike come from different tables or passages of the source.

Tests used:
[1] = target: T1, rat MCH 1 receptor (rMCH1R) (Rattus norvegicus, UniProt P97639); assay: 125I-MCH ligand binding assay, rMCH; conditions: HEK 293 membranes, 0.2 nM 125I native-MCH, read-out: IC50 in the rMCH binding assay
T1 construct: expressed in transfected cells; host or cells: HEK 293 (membranes)
T1 sequence (P97639 whole entry): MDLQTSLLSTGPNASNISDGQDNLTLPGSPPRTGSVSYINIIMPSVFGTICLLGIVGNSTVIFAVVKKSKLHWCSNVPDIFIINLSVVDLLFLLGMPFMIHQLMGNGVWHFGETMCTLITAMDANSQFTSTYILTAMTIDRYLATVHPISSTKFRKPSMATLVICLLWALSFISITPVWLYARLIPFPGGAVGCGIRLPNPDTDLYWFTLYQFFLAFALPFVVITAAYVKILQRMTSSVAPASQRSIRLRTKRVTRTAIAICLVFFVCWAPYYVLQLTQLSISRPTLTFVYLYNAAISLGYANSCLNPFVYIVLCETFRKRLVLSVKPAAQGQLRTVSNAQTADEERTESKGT
Protocol: (§1) Human embryonic kidney cells (293 total) expressing either human, rat, or mouse MCH receptor were harvested from 150 mm culture dishes using PBS. Spinning at 1500 rpm for 2 minutes initially pelleted cells. The resulting pellet was then homogenized in 15 mL ice cold sucrose buffer (25 mM HEPES, 0.3 M sucrose, pH 7.4) with a motorized, glass fitted, Teflon® homogenizer. The homogenate was centrifuged at 48,000×g at 4° C. for 10 minutes, resuspended in 15 mL assay buffer (25 mM HEPES, 10 mM mgCl2, 0.2% BSA, 0.1 mg/mL STI, 0.1 mg/mL Pefabloc®, 1 μM Phosphoramidon, pH 7.4) with a Tissue-Tearor® (Biospec Products) and centrifuged again at 48,000×g for 10 minutes. The pellet was homogenized for a third time in 15 mL assay buffer using the Tissue-Tearor® and again centrifuged at 48,000×g for 10 minutes. The resulting pellet was resuspended in assay buffer at a wet weight concentration of 10-20 mg/mL.
(§2) Binding assays were determined as described below using mouse, rat or human MCH 1 receptors (mMCH1R, rMCH1R, and hMCH1R, respectively) expressed in HEK 293; IC50 values were calculated.
(§3) Binding assays were performed in 96-well U-bottom plates. Membranes (100 μg tissue) were incubated at 30° C. for 90 minutes in assay buffer with various peptides in the presence of 0.2 nM ^125I native-MCH (Perkin-Elmer Life Sciences, Boston, Mass.) in 100 μL total volume. Non-specific binding was assessed in the presence of 1 μM cold native-MCH. The reaction was terminated by rapid filtration through Unfilter-96 GF/C glass fiber filter plates (FilterMate® 196 Harvester, Packard Instrument Co., Meriden, Conn.) pre-soaked in PBS/0.5% BSA, followed by three washes with 300 μL ice-cold water. Bound radioactivity was determined using a TopCount® microplate scintillation and luminescence counter (Packard Instrument Co., Meriden, Conn.). Nonlinear regression analyses of drug concentration curves were performed using GraphPad Prism® (GraphPad Software, Inc., San Diego, Calif.).

[2] = target: T2, human MCH 1 receptor (hMCH1R) (Homo sapiens, UniProt Q99705); assay: 125I-MCH ligand binding assay, hMCH; conditions: HEK 293 membranes, 0.2 nM 125I native-MCH, read-out: IC50 in the hMCH binding assay
T2 construct: expressed in transfected cells; host or cells: HEK 293 (membranes)
T2 sequence (Q99705 whole entry): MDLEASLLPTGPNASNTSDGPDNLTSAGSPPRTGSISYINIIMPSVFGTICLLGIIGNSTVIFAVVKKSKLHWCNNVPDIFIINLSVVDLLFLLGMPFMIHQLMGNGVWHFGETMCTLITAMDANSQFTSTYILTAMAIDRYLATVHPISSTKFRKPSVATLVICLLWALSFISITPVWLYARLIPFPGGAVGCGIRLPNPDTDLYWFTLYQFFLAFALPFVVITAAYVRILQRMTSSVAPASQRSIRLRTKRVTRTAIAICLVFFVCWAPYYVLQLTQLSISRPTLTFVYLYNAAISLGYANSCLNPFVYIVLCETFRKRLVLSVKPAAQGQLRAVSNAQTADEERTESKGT
Protocol: as §1, §2, §3

Compound	IC50 ([1]; 100 μM or less list)	IC50 ([2]; 100 μM or less list)	IC50 ([1]; 100 nM or less list)	IC50 ([2]; 100 nM or less list)
O=C1CCCN1CCCn1nnnc1[C@H](c1ccccc1)N1CCN(C/C=C/c2ccccc2)CC1 (racemic) [Compound 36, 1-[3-(5-{phenyl-[4-(3-phenylallyl)piperazin-1-yl]methyl}tetrazol-1-yl)propyl]pyrrolidin-2-one]	≤ 100 µM	≤ 100 µM	–	–
C(=C\c1ccccc1)/CN1CCN([C@@H](c2ccccc2)c2nnnn2CC2CCCO2)CC1 (stereo in doubt) [Compound 33, 1-(3-phenylallyl)-4-{phenyl-[1-(tetrahydrofuran-2-ylmethyl)-1H-tetrazol-5-yl]methyl}piperazine]	≤ 100 µM	≤ 100 µM	–	–
COC(=O)C(Cc1c[nH]c2ccccc12)n1nnnc1[C@H](c1ccccc1)N1CCN(C/C=C/c2ccccc2)CC1 (stereo in doubt) [Compound 31, 3-(1H-indol-3-yl)-2-(5-{phenyl-[4-(3-phenylallyl)piperazin-1-yl]methyl}tetrazol-1-yl)propionic acid methyl ester]	≤ 100 µM	≤ 100 µM	–	–
CCOC(=O)Cn1nnnc1[C@H](c1ccccc1)N1CCN(C/C=C/c2ccccc2)CC1 (racemic) [Compound 21]	≤ 100 µM	≤ 100 µM	–	–
CC(C)(C)n1nnnc1[C@H](c1ccccc1)N1CCN(C/C=C/c2ccccc2)CC1 (racemic) [Compound 14, 1-[(1-tert-butyl-1H-tetrazol-s-yl)phenylmethyl]-4-(3-phenylallyl)piperazine]	≤ 100 µM	≤ 100 µM	–	–
C(=C\c1ccccc1)/CN1CCN([C@@H](c2ccccc2)c2nnnn2-c2cccc3c2CCCC3)CC1 (racemic) [Compound 38, 1-(3-phenylallyl)-4-{phenyl-[1-(5,6,7,8-tetrahydronaphthalen-1-yl)-1H-tetrazol-5-yl]methyl}piperazine]	≤ 100 µM	≤ 100 µM	–	–
CN1CCCC1CCn1nnnc1[C@H](c1ccccc1)N1CCN(C/C=C/c2ccccc2)CC1 (stereo in doubt) [Compound 37, 1-({1-[2-(1-methyl-pyrrolidin-2-yl)ethyl]-1H-tetrazol-5-yl}phenylmethyl)-4-(3-phenylallyl)piperazine]	≤ 100 µM	≤ 100 µM	–	–
C(=C\c1ccccc1)/CN1CCN([C@@H](c2ccccc2)c2nnnn2CCc2c[nH]c3ccccc23)CC1 (racemic) [Compound 29, 3-[2-(5-{phenyl-[4-(3-phenylallyl)piperazin-1-yl]methyl}tetrazol-1-yl)ethyl]-1H-indole]	≤ 100 µM	≤ 100 µM	–	–
C(=C\c1ccccc1)/CN1CCN([C@@H](c2ccccc2)c2nnnn2Cc2ccccc2)CC1 (racemic) [Compound 15, 1-[(1-benzyl-1H-tetrazol-5-yl)phenylmethyl]-4-(3-phenylallyl)piperazine]	≤ 100 µM	≤ 100 µM	–	–

The remaining lines, values ahead:

IC50 ([1]; 100 μM or less list)	IC50 ([2]; 100 μM or less list)	IC50 ([1]; 100 nM or less list)	IC50 ([2]; 100 nM or less list)	Compound
≤ 100 µM	≤ 100 µM	–	–	Cc1cccc(C)c1-n1nnnc1[C@H](c1cccc2c1OCO2)N1CCN(C/C=C/c2ccccc2)CC1 (racemic) [Compound 81, 1-{benzo[1,3]diaxol-4-yl-[1-(2,6-dimethylphenyl)-1H-tetrazol-5-yl]methyl}-4-(3-phenylallyl)piperazine]
≤ 100 µM	≤ 100 µM	–	–	Cc1cccc(C)c1-n1nnnc1[C@H](c1ccc(-c2cccc(C(F)(F)F)c2)o1)N1CCN(C/C=C/c2ccccc2)CC1 (racemic) [Compound 68, 1-{[1-(2,6-dimethylphenyl)-1H-tetrazol-5-yl]-[5-(3-trifluoromethylphenyl)furan-2-yl]methyl}-4-(3-phenylallyl)piperazine]
≤ 100 µM	≤ 100 µM	–	–	FC(F)(F)c1cccc([C@@H](c2nnnn2-c2c(Cl)cccc2Cl)N2CCN(C/C=C/c3ccccc3)CC2)c1 (racemic) [Compound 164, 1-[[1-(2,6-dichlorophenyl)-1H-tetrazol-5-yl]-(3-trifluoromethylphenyl)methyl]-4-(3-phenylallyl)piperazine]
≤ 100 µM	≤ 100 µM	–	–	Cc1cccc(C)c1-n1nnnc1[C@H](c1cccnc1)N1CCN(C/C=C/c2ccccc2)CC1 (racemic) [Compound 74, 1-{[1-(2,6-dimethylphenyl)-1H-tetrazol-5-yl]pyridin-3-ylmethyl}-4-(3-phenylallyl)piperazine]
≤ 100 µM	≤ 100 µM	≤ 0.1 µM	≤ 0.1 µM	Cc1cccc(C)c1-n1nnnc1[C@H](c1cccc(C(F)(F)F)c1)N1CCN(C/C=C/c2ccccc2)CC1 (stereo in doubt) [Compound 142, 1-[[1-(2,6-dimethylphenyl)-1H-tetrazol-5-yl]-(3-trifluoromethylphenyl)methyl]-4-(3-phenylallyl)piperazine]
≤ 100 µM	≤ 100 µM	–	–	Cc1cccc(C)c1-n1nnnc1[C@H](c1ccc(C(F)(F)F)cc1)N1CCN(C/C=C/c2ccccc2)CC1 (racemic) [Compound 63, 1-[[1-(2,6-dimethylphenyl)-1H-tetrazol-5-yl]-(4-trifluoromethylphenyl)methyl]-4-(3-phenylallyl)piperazine]
≤ 100 µM	≤ 100 µM	–	–	Clc1ccc(CCn2nnnc2[C@H](c2ccccc2)N2CCN(C/C=C/c3ccccc3)CC2)cc1 (racemic) [Compound 39, 1-({1-[2-(4-chlorophenyl)ethyl]-1H-tetrazol-5-yl}phenylmethyl)-4-(3-phenylallyl)piperazine]
≤ 100 µM	≤ 100 µM	–	–	Cc1cccc(C)c1-n1nnnc1[C@H](c1cccc(Oc2ccc(Cl)c(Cl)c2)c1)N1CCN(C/C=C/c2ccccc2)CC1 (racemic) [Compound 72, 1-{[3-(3,4-dichlorophenoxy)phenyl]-[1-(2,6-dimethylphenyl)-1H-tetrazol-5-yl]methyl}-4-(3-phenylallyl) piperazine]
≤ 100 µM	≤ 100 µM	–	–	Cc1cccc([C@@H](c2nnnn2-c2c(C)cccc2C)N2CCN(C/C=C/c3ccccc3)CC2)n1 (racemic) [Compound 71, 1-[[1-(2,6-dimethylphenyl)-1H-tetrazol-5-yl]-(6-methylpyridin-2-yl)methyl]-4-(3-phenylallyl)piperazine]
≤ 100 µM	≤ 100 µM	–	–	Cc1cccc(C)c1-n1nnnc1[C@H](c1ccc(/C=C/c2ccccc2)cc1)N1CCN(C/C=C/c2ccccc2)CC1 (racemic) [Compound 52, 1-[[1-(2,6-dimethylphenyl)-1H-tetrazol-5-yl]-(4-styrylphenyl)methyl]-4-(3-phenylallyl)piperazirie]
≤ 100 µM	≤ 100 µM	–	–	Cc1cccc(C)c1-n1nnnc1[C@H](COCc1ccccc1)N1CCN(C/C=C/c2ccccc2)CC1 (racemic) [Compound 69, 1-{2-benzyloxy-1-[1-(2,6-dimethylphenyl)-1H-tetrazol-5-yl]ethyl}-4-(3-phenylallyl)piperazine]
≤ 100 µM	≤ 100 µM	–	–	Cc1cccc(C)c1-n1nnnc1[C@H](c1ccccc1C#N)N1CCN(C/C=C/c2ccccc2)CC1 (racemic) [Compound 80, 2-{[1-(2,6-dimethylphenyl)-1H-tetrazol-5-yl]-[4-(3-phenylallyl)piperazin-1-yl]methyl}benzonitrile]
≤ 100 µM	≤ 100 µM	–	–	Cc1cccc(C)c1-n1nnnc1[C@H](c1cccc2ccccc12)N1CCN(C/C=C/c2ccccc2)CC1 (racemic) [Compound 46, 1-{[1-(2,6-dimethyiphenyl)-1H-tetrazol-5-yl]naphthalen-1-ylmethyl}-4-(3-phenylallyl)piperazine]
